Laboratory results as given in ChEMBL document CHEMBL1132898, “COBRA-1, a rationally-designed epoxy-THF containing compound with potent tubulin depolymerizing activity as a novel anticancer agent” (2000).
Calls of active or inactive are those of the source. The rule behind the calls is not given here.

Tests used:
Homo sapiens = species: Homo sapiens; assay: Concentration for inhibition of proliferation of BT-20 by impairing the mitotic spindle assembly; Range 1-10 uM; format: functional
BT-20 = assay: Concentration of compound that increased the level of c-jun mRNA expression in BT-20 breast cancer cells; format: functional, cell-based; conditions: Homo sapiens
NALM-6 [1] = assay: Compound (10 uM) was tested for its ability to kill clonogenic NALM-6 cells; format: functional, Homo sapiens
NALM-6 [2] = assay: Compound (100 uM) was tested for its ability to kill clonogenic NALM-6 leukemia cells at 100 uM; format: functional, Homo sapiens
NALM-6 [3] = assay: Cytotoxic activity (<10 uM) against clonogenic NALM-6 leukemia using standard in vitro clonogenic assay; No effect; format: functional, cell-based; conditions: Homo sapiens
PC-3 [4] = assay: Compound (10 uM) was tested for its ability to kill clonogenic PC-3 cells; format: functional, Homo sapiens
PC-3 [5] = assay: Compound (100 uM) was tested for its ability to kill clonogenic PC-3 cells at 100 uM; format: functional, Homo sapiens
PC-3 [6] = assay: Cytotoxic activity (<10 uM) against PC-3 prostate cancer cells using standard in vitro clonogenic assay; No effect; format: functional, cell-based; conditions: Homo sapiens
U373 MG [7] = assay: Concentration of compound that increased the level of c-jun mRNA expression in U373 glioblastoma cells; format: functional, cell-based; conditions: Homo sapiens; U-373MG ATCC
[8] = target: Tubulin alpha chain (Sus scrofa) (UniProt P02550); assay: Compound was tested for tubulin polymerization in presence of GTP by using cell free tubulin turbidity assay; Active; format: functional
U373 MG [9] = assay: Concentration for inhibition of proliferation of U373 by impairing the mitotic spindle assembly at a concentration; Range 1-10 uM; format: functional, cell-based; conditions: Homo sapiens; U-373MG ATCC

Tubulin alpha chain (Sus scrofa), sequence (P02550 whole entry, looked up): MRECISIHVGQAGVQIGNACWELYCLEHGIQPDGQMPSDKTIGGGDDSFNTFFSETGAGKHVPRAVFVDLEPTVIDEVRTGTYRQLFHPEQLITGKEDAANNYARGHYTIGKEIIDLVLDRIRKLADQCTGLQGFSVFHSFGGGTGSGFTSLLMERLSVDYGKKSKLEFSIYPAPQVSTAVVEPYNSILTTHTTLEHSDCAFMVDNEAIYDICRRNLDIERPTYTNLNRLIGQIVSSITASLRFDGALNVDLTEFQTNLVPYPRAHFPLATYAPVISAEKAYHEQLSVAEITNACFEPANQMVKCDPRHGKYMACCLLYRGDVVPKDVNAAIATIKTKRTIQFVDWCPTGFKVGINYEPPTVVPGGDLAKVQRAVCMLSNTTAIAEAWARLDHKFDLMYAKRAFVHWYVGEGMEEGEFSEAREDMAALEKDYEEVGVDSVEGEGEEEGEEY

C=CCC[C@H](O)[C@H]1CC[C@H]([C@H](O)CCCCCCCCCCCC)O1
Concentration (Homo sapiens): 10 µM
Concentration (BT-20): 250 µM
Cell kill (NALM-6 [1]): 99%
Cell kill (NALM-6 [2]): >99.9%
Concentration (NALM-6 [3]): inactive
Cell kill (PC-3 [4]): 91%
Cell kill (PC-3 [5]): >99.9%
Concentration (PC-3 [6]): inactive
Concentration (U373 MG [7]): 250 µM
inhibition [8]: Active
Concentration (U373 MG [9]): 10 µM
